{
  "source": "patent US12297165B2",
  "about": "“Oligothioetheramides (oligoteas) as anti-microbial and anti-bacterial agents” (Cornell University, priority 2017, dated 2025)",
  "assay_type_in_all_cases": "cell-based",
  "key": {"[1]": {"test_system": "cell membrane of methicillin resistant Staphylococcus aureus (MRSA)", "experiment": "Membrane permeabilization propidium iodide (PI) assay, MRSA"}, "[2]": {"test_system": "bacterial membrane", "experiment": "Cytoplasmic permeability assay with propidium iodide, fluorescence microscopy", "conditions": "incubated with PI", "protocol": "Membrane permeabilization propidium iodide (PI) assay: 1 mM BDT-4G stock solutions were prepared in DMSO. B. subtilis strains were streaked onto a Luria Broth (LB) agar plate and incubated overnight. One colony was selected and incubated in LB overnight, then subcultured and incubated until the OD600 measured between 0.5 and 0.6. Bacteria were harvested, washed, and resuspended in a solution of 5 mM HEPES, 5 mM glucose, and 10 μM propidium iodide. 150 μL bacteria solution was added to each well of a black 96 well plate. Fluorescence measurements were taken at 535 nm excitation, 617 nm emission on a TECAN Infinite M1000 PRO Microplate reader (Männdorf) (TECAN) for 2 minutes. BDT-4G stock solution was added for a concentration of 15 μg/mL, and fluorescence measurements were taken for an additional 20 minutes.\nMembrane permeabilization dictates lytic potential. A cytoplasmic permeability assay was performed using propidium iodide (PI). PI is a cell impermeant intercalating agent that fluoresces when bound to nucleic acids. As such, PI can be used to identify cells with compromised membranes by measuring an increase in fluorescence above the baseline. This phenomenon was qualitatively confirmed by performing fluorescence microscopy studies incubated with PI with or without the AOTs. […]"}, "[3]": {"test_system": "Bacillus subtilis", "experiment": "Minimum inhibitory concentration (MIC) assay, B. subtilis", "protocol": "(§1) Biological Assays: Minimum inhibitory concentration (MIC) assay: A single bacterial colony (Bacillus subtilis (B. subtilis) or methicillin-resistant Staphylococcus aureus (MRSA)) was selected and incubated in media (Luria Broth (LB) for B. subtilis or Tryptic Soy Broth (TSB) for MRSA) at 37° C. overnight. This was sub-cultured in media and incubated at 37° C. until the OD600 was approximately 0.5 (2.5-3.5-hour incubation). The subculture was diluted with media to an OD600 of 0.001. Diluted subculture and 1 mM stocks of compounds to be tested were added to a clear 96-well plate, and serially diluted by a factor of 0.5. The well plate was incubated overnight and the absorbance was measured at 600 nm using the TECAN. To determine the MIC in presence of serum, assays were repeated using media with 20% heat-inactivated mouse serum or 20% fetal bovine serum. […] The MIC50 was calculated using a 4PL sigmoidal nonlinear regression on Prism. The MIC100 was calculated as the first point below 10% of the maximum.\nThe MIC of PEG24-LL-PDT4G against B. subtilis was compared with the MIC of unmodified PDT-4G. Both compounds were pre-incubated with B. subtilis supernatant for 0, 4, or 24 hours before the MIC assay to test cleavage kinetics (FIG. 53)."}, "[4]": {"test_system": "community associated Staphylococcus aureus (strain USA300)", "experiment": "Minimum inhibitory concentration (MIC) assay, S. aureus USA300", "protocol": "as §1"}, "[5]": {"test_system": "E. coli", "experiment": "Minimum inhibitory concentration (MIC) assay, E. coli"}, "[6]": {"test_system": "methicillin resistant Staphylococcus aureus (MRSA) (ATCC 33591)", "experiment": "Minimum inhibitory concentration (MIC) assay, MRSA", "protocol": "as §1"}, "[7]": {"test_system": "Pseudomonas aeruginosa (PA-14, PA-1)", "experiment": "MIC assay, Pseudomonas aeruginosa strains", "conditions": "Pseudomonas aeruginosa PA-14 and PA-1", "source_text": "PA-14 is a highly virulent Pseudomonas aeruginosa strain (Gram-negative) that is difficult to treat. PA-1 is a meropenem resistant clinical isolate of Pseudomonas aeruginosa that was obtained from a patient. Meropenem, vancomycin and polymyxin B are commercial antibiotics that are used as controls."}, "[8]": {"conditions": "presence of elevated calcium and magnesium ions (25 mM)"}, "[9]": {"conditions": "normal (Tryptic Soy media) media"}, "[10]": {"conditions": "presence of elevated calcium and magnesium ions (25 mM) and presence of heat-inactivated fetal bovine serum"}},
  "data": [
    {"molecule": "CN[C@H](CC(C)C)C(=O)N[C@H]1C(=O)N[C@@H](CC(N)=O)C(=O)N[C@H]2C(=O)N[C@H]3C(=O)N[C@H](C(=O)N[C@H](C(=O)O)c4cc(O)cc(O)c4-c4cc3ccc4O)[C@H](O)c3ccc(c(Cl)c3)Oc3cc2cc(c3O[C@@H]2O[C@H](CO)[C@@H](O)[C@H](O)[C@H]2O[C@H]2C[C@](C)(N)[C@H](O)[C@H](C)O2)Oc2ccc(cc2Cl)[C@H]1O", "note": "[Vancomycin]", "values": [
      {"measurement": "membrane destabilization (diffusion of propidium iodide dye into the cell)", "setting": "[1]", "result": "no membrane compromise"},
      {"measurement": "propidium iodide entry into cells (staining)", "setting": "[2]", "result": "PI was unable to gain entry into cells"}
    ]},
    {"molecule": "C=CCN(CCNC(=N)N)C(=O)CCSCCCCSCCCN(CCNC(=N)N)C(=O)CCSCCCCSCCCN(CCNC(=N)N)C(=O)CCSCCCCSCCCN(CCNC(=N)N)C(=O)CCSCCCCSCCCN(CCNC(=N)N)C(=O)CCSCCCCSCCCN", "note": "[BDT-5G]", "values": [
      {"measurement": "antibacterial activity (MIC100) against Bacillus subtilis", "setting": "[3]; normal (LB media) media", "result": "show activity"},
      {"measurement": "antibacterial activity (MIC100) against Bacillus subtilis", "setting": "[3]; [8]", "result": "maintain their antibacterial activity"},
      {"measurement": "antibacterial activity (MIC100) against Staphylococcus aureus strain USA300", "setting": "[4]; [9]", "result": "show activity"},
      {"measurement": "antibacterial activity (MIC100) against Staphylococcus aureus strain USA300", "setting": "[4]; [10]", "result": "maintain their antibacterial activity"},
      {"measurement": "antibacterial activity (MIC100) against E. coli", "setting": "[5]; normal (LB media) media", "result": "show activity"},
      {"measurement": "antibacterial activity (MIC100) against E. coli", "setting": "[5]; [8]", "result": "maintain their antibacterial activity"},
      {"measurement": "antibacterial activity (MIC100) against MRSA", "setting": "[6]; [9]", "result": "show activity"},
      {"measurement": "antibacterial activity (MIC100) against MRSA", "setting": "[6]; [10]", "result": "maintain their antibacterial activity"}
    ]},
    {"molecule": "CCCCCCCCCC(=O)N[C@@H](Cc1c[nH]c2ccccc12)C(=O)N[C@H](CC(N)=O)C(=O)N[C@@H](CC(=O)O)C(=O)N[C@@H]1C(=O)NCC(=O)N[C@@H](CCCN)C(=O)N[C@@H](CC(=O)O)C(=O)N[C@H](C)C(=O)N[C@@H](CC(=O)O)C(=O)NCC(=O)N[C@H](CO)C(=O)N[C@@H]([C@H](C)CC(=O)O)C(=O)N[C@@H](CC(=O)c2ccccc2N)C(=O)O[C@@H]1C", "note": "[daptomycin]", "values": [
      {"measurement": "membrane destabilization (diffusion of propidium iodide dye into the cell)", "setting": "[1]", "result": "no membrane compromise"}
    ]},
    {"molecule": "C=CCN(CCNC(=N)N)C(=O)CCSCCCSCCCN(CCNC(=N)N)C(=O)CCSCc1cccc(CSCCCN(CCNC(=N)N)C(=O)CCSCCCSCCCN)c1", "note": "[3GMG3G]", "values": [
      {"measurement": "activity relative to the para substituted compound (3GPG3G)", "setting": "[7]", "result": "2-4 fold"}
    ]}
  ]
}
